Data reported in PubChem BioAssay AID743092 (The Scripps Research Institute Molecular Screening Center, 2013).
Calls of active or inactive are those of the source. No rule for the calls is given here.

Test system: counterscreen cell line, fluorescence, non-specific activators
Experiment: nonselective activators, counterscreen cells – cell-based, fluorescence, late stage, counter-screen for GalR3 antagonist project, dose response (AID 743092)

SMILES	IC50
CSc1ccc(C(=O)C2CCCN(C(=O)CCc3c(C)nn(C)c3C)C2)cc1 (configuration not stated)	> 29.9 µM (inactive)
COc1ccc(CCNc2ncnc3sccc23)cc1OC	> 29.9 µM (inactive)
COc1ccc(C(=O)CSc2nnc(Cn3cnc4ccccc43)o2)cc1	> 29.9 µM (inactive)
CCOC(=O)c1[nH]c2ccc(OC)cc2c1NS(=O)(=O)c1ccc(Cl)s1	> 29.9 µM (inactive)
Nc1nonc1-n1nnc(C(=O)N/N=C/c2cc(Br)ccc2O)c1CSC1=NCCS1	> 29.9 µM (inactive)
COc1ccc(OC)c(CCNC(=O)Cn2nc(C)c3c(C)n(-c4ccc(C)cc4)nc3c2=O)c1	> 29.9 µM (inactive)
CC(=O)c1ccc(N2CCN(C(=S)Nc3ccc(Oc4ccccc4)cc3)CC2)cc1	> 29.9 µM (inactive)
COc1cc(CSc2nnnn2-c2ccc(C)cc2)cc(OC)c1OC	> 29.9 µM (inactive)
NC(=O)c1c(-c2ccc(Cl)cc2Cl)csc1NC(=O)Cc1ccccc1	> 29.9 µM (inactive)
CC1CC(=O)NN=C1c1ccc(N)c([N+](=O)[O-])c1 (configuration not stated)	> 29.9 µM (inactive)
COc1cc2c(cc1OC)[C@@H]1C(=O)c3ccc4c(c3O[C@@H]1CO2)C[C@H](C(C)C)O4	> 29.9 µM (inactive)
CCOc1cc(S(=O)(=O)NCc2ccncc2)ccc1Cl	> 29.9 µM (inactive)
Cc1cccc(Cl)c1NC(=O)N1CCCN(c2nc3ccc(Cl)cc3s2)CC1	> 29.9 µM (inactive)
CCCOc1ccc(CSc2nc3ccccc3[nH]2)cc1	> 29.9 µM (inactive)
COc1ccc(NS(=O)(=O)c2ccc(NC(=O)c3ccc(CN4CCOCC4)cc3)cc2)cc1	> 29.9 µM (inactive)
CCCCc1ccc(NC(=O)c2ccc(N(C)S(C)(=O)=O)cc2)cc1	> 29.9 µM (inactive)
N#Cc1cc(-c2ccccc2)oc1NC(=O)c1ccco1	> 29.9 µM (inactive)
CC(=O)c1cn(CC(=O)NCCc2c[nH]c3ccccc23)c2ccccc12	> 29.9 µM (inactive)
Cc1cc(C)nc(SCC(=O)Nc2ccnc3ccccc23)n1	> 29.9 µM (inactive)

SMILES	IC50
NC(=O)c1nnn(Cc2cc(Cl)c(C(=O)c3ccc(Cl)cc3)c(Cl)c2)c1N	> 29.9 µM (inactive)
CC1(C)CC2CC(C)(CN2S(=O)(=O)c2ccc(C(=O)Nc3cccc(S(=O)(=O)N4CCOCC4)c3)cc2)C1 (configuration not stated)	> 29.9 µM (inactive)
O=S(=O)(NCc1ccncc1)c1ccc(Br)s1	> 29.9 µM (inactive)
Cc1nn(C)c(Cl)c1NC(=O)OCc1ccc(Cl)cc1Cl	> 29.9 µM (inactive)
CCCOC(=O)c1ccc(OCC(O)Cn2c(C)nc3ccccc32)cc1 (configuration not stated)	> 29.9 µM (inactive)
Cc1oc(-c2ccc(Cl)cc2)nc1CSCC(=O)NC1CCN(Cc2ccccc2)CC1	26.8 µM (inactive)
CC(C)(C)CN1CCN(Cc2nc(-c3ccc(F)cc3)cs2)CC1CCO (configuration not stated)	> 29.9 µM (inactive)
O=C(Cc1ccc(Cl)cc1Cl)Nc1ccncc1Cl	> 29.9 µM (inactive)
Nc1cc(-c2ccc(Br)cc2)nn1Cc1ccccc1	> 29.9 µM (inactive)
CC(C)(C)NC(=O)COC(=O)c1snc(C(=O)NC2CCCCC2)c1N	> 29.9 µM (inactive)
Cc1cc(CSc2ccccc2)ccc1NC(=O)c1ccc(CN2CCOCC2)cc1	> 29.9 µM (inactive)
CC(=O)c1c(C)[nH]c(C(=O)COc2cc(C)ccc2C(C)C)c1C	> 29.9 µM (inactive)
CNc1ccccc1C(C)(C)c1cc(-c2ccc(F)cc2)no1	19.6 µM (inactive)
CCCCCn1c(=O)[nH]c2cc(C(=O)N3CCN(Cc4ccc5c(c4)OCO5)CC3)ccc2c1=O	> 29.9 µM (inactive)
COc1cccc2[nH]c3c(N4CCC(C)CC4)ncnc3c12	> 29.9 µM (inactive)
Cc1nn(C)c(C)c1CN(C)S(=O)(=O)c1ccc2ccccc2c1	> 29.9 µM (inactive)
Fc1ccc(NC(=S)N2CCCN(c3ccc(C(F)(F)F)cn3)CC2)c(F)c1	> 29.9 µM (inactive)
CC(C)(C)c1ccc(C(=O)Nc2ccc(Oc3cccnc3)nc2)cc1	> 29.9 µM (inactive)
COc1ccc(CN(C)c2ccc(S(=O)(=O)N3CCN(C)CC3)cc2[N+](=O)[O-])cc1OC	> 29.9 µM (inactive)

SMILES	IC50
Cc1ccccc1-c1cc(C(=O)Nc2sc(C(=O)OC(C)C)c(C)c2C#N)c2ccccc2n1	> 29.9 µM (inactive)
O=C(COc1ccc(C(=O)c2ccccc2)cc1)Nc1cccnc1	> 29.9 µM (inactive)
Cc1ccccc1Cn1c(C)nc2ccccc21	> 29.9 µM (inactive)
Cc1nc2ccccc2n1Cc1ccc(Cl)cc1	> 29.9 µM (inactive)
CCOc1nc(C#N)nc(N2CCCCC2)n1	> 29.9 µM (inactive)
CCN(CC)S(=O)(=O)c1cc(NC(=O)CNc2cccc(S(=O)(=O)N3CCOCC3)c2)ccc1C	> 29.9 µM (inactive)
Cc1nn(C)c(Nc2ccc(Br)cc2)c1Br	> 29.9 µM (inactive)
O=C(Nc1nc(-c2ccc(Cl)cc2Cl)cs1)c1ccc(OCC2CCCO2)cc1 (configuration not stated)	> 29.9 µM (inactive)
O=C(CSc1nnc(Cn2nnc3ccccc32)o1)N(Cc1ccc(F)cc1)c1ccccc1	> 29.9 µM (inactive)
Cc1cc(C(=O)CSc2nc(N)cc(=O)[nH]2)c(C)n1-c1ccc(OC(F)F)cc1	> 29.9 µM (inactive)
Cc1[nH]c(=O)c(C#N)cc1-c1ccccc1	> 29.9 µM (inactive)
Cc1ccc(Oc2ccc(OCC(=O)Nc3ccncc3)cc2)cc1	> 29.9 µM (inactive)
COc1ccc(CN2CCC(C(=O)Nc3ccc(Oc4ccccc4)nc3)CC2)cc1F	> 29.9 µM (inactive)
COc1ccc(-n2c(C)cc(C(=O)COC(=O)Cn3cnc4ccccc43)c2C)cc1	> 29.9 µM (inactive)
O=C(CSc1nnnn1C1CC2CCC1C2)Nc1ccnc2ccccc12 (configuration not stated)	> 29.9 µM (inactive)
Cn1nc(C(C)(C)C)cc1C(=O)NCc1ccc(N2CCCC2=O)cc1	> 29.9 µM (inactive)
S=C(NCCc1ccccc1)Nc1cccc2cnccc12	> 29.9 µM (inactive)
CCOC(=O)Cc1csc(NC(=O)c2cc(=O)c3ccccc3o2)n1	> 29.9 µM (inactive)
CC(C)(C)c1ccc(-n2ncc3c2CCCC3NC(=O)C2(C(N)=O)CC2)cc1 (configuration not stated)	> 29.9 µM (inactive)
